Test results as given in US9132086B2, “Compositions for and methods of controlling olfactory responses to odorants” (Auburn University, priority 2006, dated 2015).

What was measured:
[1] = test system: olfactory receptor neurons; assay: Whole-cell patch-clamp recording of single olfactory neurons; type: cell-based, rat; settings: FIG. 7
Excerpt: FIG. 6 illustrates electrophysiological recordings from a rat olfactory epithelium and a single olfactory neuron where the stimulus was a 0.5-s pulse of air or an odorant mixture. The odorant concentration was constant for all traces. […] Vapor of odorants were collected above the odorant solutions (in water) of concentrations shown. […] The stimulus was a 0.5 second pulse of odorant/zinc particle mixture. Downward direction indicates inward current.
FIG. 7 illustrates results from EGTA experiments and Zn^+2 ions experiments. […] It is widely known that EGTA binds multivalent metals. When Zn metal nanoparticles are bound by EGTA, the number of particles participating in olfactory signal transduction is reduced, and the odorant response is decreased. […] When the patch electrode is filled with a solution containing 500 pM EGTA, the odorant-evoked current changes markedly. Few minutes after beginning the perfusion, a progressive […] in the amplitude of the odorant triggered inward currents is noted.

rat olfactory epithelium = assay: EOG recording of rat olfactory epithelium, odorant puffs; type: cell-based; settings: FIG. 7 chart 720; external perfusion of ZnCl2 solutions, same range of concentrations as nanoparticles (10^−9-10^−15 M)
Excerpt: The averaged activity of the receptor neuron to an odor can be measured by an electroolfactogram (EOG). In this process, fragments of olfactory epithelaia, either cultured or dissected from natural sources (e.g., mice and dogs), are placed in an EOG recording chamber with a buffer solution. The epithelial cilia are exposed. Electrodes are connected to the tissues through a patch-clamp amplifier to detect electrical activity of the olfactory epithelia. In general air puff or plums of an odorant mixture are applied over the olfactory epithelia through a small pipet or capillary, before and after being treated with the metal composition, described in detail below. The amplitude of the electrical signal to the amount of the odorant is plotted over time after the electrical signal is amplified and filtered.
FIG. 3C is a graph 370 showing amplitude plots 371, 373, 375 and 377 of Electroolfactogram recordings. In this case rat olfactory tissue was placed in an EOG recording chamber with a buffer solution and connected to electrodes through an amplifier. Air puffs or plumes of an odorant mixture are applied over the rat olfactory tissue and the electrical response was measured and the normalized peak amplitudes were plotted over time over time.
FIG. 5 illustrates EOG traces from rat olfactory epithelium. Responses were induced by air odorants and a mixture of odorants and zinc metal particles. […]

| odorant response by olfactory receptor neurons (rat olfactory epithelium) | SMILES | effect on odorant response measured by patch-clamp ([1]; 500 pM perfused inside olfactory neurons) | dose dependence of the effect on odorant response ([1]; perfused inside olfactory neurons) |
| --- | --- | --- | --- |
| – | O=C(O)CN(CCOCCOCCN(CC(=O)O)CC(=O)O)CC(=O)O [EGTA, ethylene glycol tetraacetic acid] | clearly inhibit odorant response | dose dependent |
| reduced | [Zn+2] [Zn^+2 ions, ZnCl2] | – | – |
